Source: patent US20230365592A1 (Agios Pharmaceuticals, Inc., priority 2022, published 2023)

molecular target: T1, human PAH with the R408W mutation (Homo sapiens, UniProt P00439, R408W); assay: Cell Based Phenylalanine Flux Assay; conditions: A375 cells expressing human PAH R408W; 24 hrs compound incubation; 13C-Tyrosine by LC-MS; average where tested multiple times; read-out: AC50;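 note: after compound treatment, cells received sepiapterin plus isotope-labelled Phenylalanine for 4 hours, then labelled Tyrosine in the medium was quantified, 10-point 2-fold dilution series run in duplicate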
T1 construct: expressed in transfected cells
T1 sequence (P00439 1-452 R408W): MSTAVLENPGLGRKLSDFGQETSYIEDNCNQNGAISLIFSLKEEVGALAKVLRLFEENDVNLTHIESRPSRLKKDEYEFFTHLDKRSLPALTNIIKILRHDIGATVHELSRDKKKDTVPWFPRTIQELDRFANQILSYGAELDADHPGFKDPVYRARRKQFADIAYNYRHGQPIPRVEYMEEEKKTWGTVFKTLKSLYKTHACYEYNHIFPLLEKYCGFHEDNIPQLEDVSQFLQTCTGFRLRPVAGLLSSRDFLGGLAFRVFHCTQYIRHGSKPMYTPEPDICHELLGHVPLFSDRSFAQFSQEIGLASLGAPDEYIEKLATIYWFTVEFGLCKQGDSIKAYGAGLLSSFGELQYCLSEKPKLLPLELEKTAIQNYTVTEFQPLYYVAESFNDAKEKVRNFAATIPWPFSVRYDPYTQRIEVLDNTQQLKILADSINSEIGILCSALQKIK

SMILES | AC50 [µM]
COc1cccn2nc([C@@H]3c4nc[nH]c4CCN3c3nnc(C(F)(F)F)o3)cc12 [Example 2164, (S)-2-(4-(4-methoxypyrazolo[1,5-a]pyridin-2-yl)-1,4,6,7-tetrahydro-5H-imidazo[4,5-c]pyridin-5-yl)-5-(trifluoromethyl)-1,3,4-oxadiazole] | < 0.5
COc1cccn2nc([C@H]3c4nc[nH]c4CCN3c3nnc(C(F)(F)F)o3)cc12 [Example 2165, (R)-2-(4-(4-methoxypyrazolo[1,5-a]pyridin-2-yl)-1,4,6,7-tetrahydro-5H-imidazo[4,5-c]pyridin-5-yl)-5-(trifluoromethyl)-1,3,4-oxadiazole] | > 5
FC(F)c1nnc(N2CCc3[nH]cnc3[C@@H]2c2cc3c(C4CC4)cccn3n2)o1 [Example 2166, (R)-2-(4-(4-cyclopropylpyrazolo[1,5-a]pyridin-2-yl)-1,4,6,7-tetrahydro-5H-imidazo[4,5-c]pyridin-5-yl)-5-(difluoromethyl)-1,3,4-oxadiazole] | > 5
CC(C)c1cccn2nc([C@H]3c4nc[nH]c4CCN3c3nnc(C4CC4)o3)cc12 [Example 2168, (R)-2-cyclopropyl-5-(4-(4-isopropylpyrazolo[1,5-a]pyridin-2-yl)-1,4,6,7-tetrahydro-5H-imidazo[4,5-c]pyridin-5-yl)-1,3,4-oxadiazole] | 1 to 5
CC(C)c1cccn2nc([C@@H]3c4nc[nH]c4CCN3c3nnc(C4CC4)o3)cc12 [Example 2169, (S)-2-cyclopropyl-5-(4-(4-isopropylpyrazolo[1,5-a]pyridin-2-yl)-1,4,6,7-tetrahydro-5H-imidazo[4,5-c]pyridin-5-yl)-1,3,4-oxadiazole] | < 0.5
FC(F)(F)c1ccc(N2CCc3[nH]cnc3[C@H]2c2cc3c(C4CC4)cccn3n2)nc1 [Example 2170, (S)-4-(4-cyclopropylpyrazolo[1,5-a]pyridin-2-yl)-5-(5-(trifluoromethyl)pyridin-2-yl)-4,5,6,7-tetrahydro-1H-imidazo[4,5-c]pyridine] | < 0.5
FC(F)(F)c1ccc(N2CCc3[nH]cnc3[C@@H]2c2cc3c(C4CC4)cccn3n2)nc1 [Example 2171, (R)-4-(4-cyclopropylpyrazolo[1,5-a]pyridin-2-yl)-5-(5-(trifluoromethyl)pyridin-2-yl)-4,5,6,7-tetrahydro-1H-imidazo[4,5-c]pyridine] | > 5
c1cnc(N2CCc3[nH]cnc3[C@H]2c2cc3c(C4CC4)cccn3n2)nc1 [Example 2172, (S)-4-(4-cyclopropylpyrazolo[1,5-a]pyridin-2-yl)-5-(pyrimidin-2-yl)-4,5,6,7-tetrahydro-1H-imidazo[4,5-c]pyridine] | < 0.5
c1cnc(N2CCc3[nH]cnc3[C@@H]2c2cc3c(C4CC4)cccn3n2)nc1 [Example 2173, (R)-4-(4-cyclopropylpyrazolo[1,5-a]pyridin-2-yl)-5-(pyrimidin-2-yl)-4,5,6,7-tetrahydro-1H-imidazo[4,5-c]pyridine] | 1 to 5
FC(F)(F)c1cnc(N2CCc3[nH]cnc3[C@H]2c2cc3c(C4CC4)cccn3n2)nc1 [Example 2174, (S)-4-(4-cyclopropylpyrazolo[1,5-a]pyridin-2-yl)-5-(5-(trifluoromethyl)pyrimidin-2-yl)-4,5,6,7-tetrahydro-1H-imidazo[4,5-c]pyridine] | < 0.5
FC(F)(F)c1cnc(N2CCc3[nH]cnc3[C@@H]2c2cc3c(C4CC4)cccn3n2)nc1 [Example 2175, (R)-4-(4-cyclopropylpyrazolo[1,5-a]pyridin-2-yl)-5-(5-(trifluoromethyl)pyrimidin-2-yl)-4,5,6,7-tetrahydro-1H-imidazo[4,5-c]pyridine] | > 5
Fc1cccn2nc([C@H]3c4nc[nH]c4CCN3c3nnc(-c4ccncn4)o3)cc12 [Example 2179, (R)-2-(4-(4-fluoropyrazolo[1,5-a]pyridin-2-yl)-1,4,6,7-tetrahydro-5H-imidazo[4,5-c]pyridin-5-yl)-5-(pyrimidin-4-yl)-1,3,4-oxadiazole] | > 5
CC(C)c1cccn2nc([C@@H]3c4nc[nH]c4CCN3c3nnc(-c4ccncn4)o3)cc12 [Example 2180, (S)-2-(4-(4-isopropylpyrazolo[1,5-a]pyridin-2-yl)-1,4,6,7-tetrahydro-5H-imidazo[4,5-c]pyridin-5-yl)-5-(pyrimidin-4-yl)-1,3,4-oxadiazole] | 0.5 to 1
CC(C)c1cccn2nc([C@H]3c4nc[nH]c4CCN3c3nnc(-c4ccncn4)o3)cc12 [Example 2181, (R)-2-(4-(4-isopropylpyrazolo[1,5-a]pyridin-2-yl)-1,4,6,7-tetrahydro-5H-imidazo[4,5-c]pyridin-5-yl)-5-(pyrimidin-4-yl)-1,3,4-oxadiazole] | > 5
Clc1cccn2nc([C@H]3c4nc[nH]c4CCN3c3nnc(-c4ccncn4)o3)cc12 [Example 2183, (R)-2-(4-(4-chloropyrazolo[1,5-a]pyridin-2-yl)-1,4,6,7-tetrahydro-5H-imidazo[4,5-c]pyridin-5-yl)-5-(pyrimidin-4-yl)-1,3,4-oxadiazole] | > 5
CC(C)c1cccn2nc([C@@H]3c4nc[nH]c4CCN3c3ncc(C(F)(F)F)cn3)cc12 [Example 2185, (S)-4-(4-isopropylpyrazolo[1,5-a]pyridin-2-yl)-5-(5-(trifluoromethyl)pyrimidin-2-yl)-4,5,6,7-tetrahydro-1H-imidazo[4,5-c]pyridine] | < 0.5
Cc1nnc(N2CCc3[nH]cnc3[C@H]2c2cc3c(C4CC4)cccn3n2)o1 [Example 2187, (S)-2-(4-(4-cyclopropylpyrazolo[1,5-a]pyridin-2-yl)-1,4,6,7-tetrahydro-5H-imidazo[4,5-c]pyridin-5-yl)-5-methyl-1,3,4-oxadiazole] | < 0.5
Cc1cccn2nc([C@@H]3c4nc[nH]c4CCN3c3nnc(C4(C)CC4)o3)cc12 [Example 2189, (S)-2-(1-methylcyclopropyl)-5-(4-(4-methylpyrazolo[1,5-a]pyridin-2-yl)-1,4,6,7-tetrahydro-5H-imidazo[4,5-c]pyridin-5-yl)-1,3,4-oxadiazole] | 0.5 to 1
CC(F)(F)c1nnc(N2CCc3[nH]cnc3[C@H]2c2cc3ccccn3n2)o1 [Example 2191, (S)-2-(1,1-difluoroethyl)-5-(4-(pyrazolo[1,5-a]pyridin-2-yl)-1,4,6,7-tetrahydro-5H-imidazo[4,5-c]pyridin-5-yl)-1,3,4-oxadiazole] | 0.5 to 1
Cc1cccn2nc([C@@H]3c4nc[nH]c4CCN3c3nnc(C(C)(F)F)o3)cc12 [Example 2193, (S)-2-(1,1-difluoroethyl)-5-(4-(4-methylpyrazolo[1,5-a]pyridin-2-yl)-1,4,6,7-tetrahydro-5H-imidazo[4,5-c]pyridin-5-yl)-1,3,4-oxadiazole] | < 0.5
CC(F)(F)c1nnc(N2CCc3[nH]cnc3[C@H]2c2cc3c(C(F)(F)F)cccn3n2)o1 [Example 2195, (S)-2-(1,1-difluoroethyl)-5-(4-(4-(trifluoromethyl)pyrazolo[1,5-a]pyridin-2-yl)-1,4,6,7-tetrahydro-5H-imidazo[4,5-c]pyridin-5-yl)-1,3,4-oxadiazole] | < 0.5
CC(F)(F)c1nnc(N2CCc3[nH]cnc3[C@H]2c2cc3c(F)cccn3n2)o1 [Example 2197, (S)-2-(1,1-difluoroethyl)-5-(4-(4-fluoropyrazolo[1,5-a]pyridin-2-yl)-1,4,6,7-tetrahydro-5H-imidazo[4,5-c]pyridin-5-yl)-1,3,4-oxadiazole] | 0.5 to 1
